# Results from ChEMBL document CHEMBL3885861, “Open TG-GATES”.
# Species: Rattus norvegicus
# Test: Open TG-GATES - Regimen: Single
# Assay type: toxicity, organism-based, Sprague-Dawley
# Set-up: regimen Single, gender Male, age 6 weeks
# Conditions: in vivo, po, 0 mg/kg, route gavage, dose level Control; for APTT / Bas / Eos / Fbg / Hb / Ht / Lym / MCH / MCHC / MCV / Mono / Neu / PT / Plat / RBC / Ret / WBC: tissue Blood; for KIDNEY_L / KIDNEY_R / KIDNEY_TOTAL: tissue Kidney; for LIVER: tissue Liver; for A/G / ALP / ALT / AST / BUN / CRE / Ca / Cl / DBIL / GLC / IP / K / LDH / Na / PL / RALB / TBIL / TC / TG / TP / gamma-GTP: tissue Plasma
compound,measurement,setting,value
O=C(O)c1cc(/N=N/c2ccc(S(=O)(=O)Nc3ccccn3)cc2)ccc1O [SULFASALAZINE],TERMINAL_BW,3 h,209.5 g
same,APTT,3 h,18.5 s
same,Bas,3 h,0%
same,Eos,3 h,0.8%
same,Fbg,3 h,220.4 mg/dL
same,Hb,3 h,12.8 g/dL
same,Ht,3 h,38.5%
same,Lym,3 h,80.4%
same,MCH,3 h,21.2 pg
same,MCHC,3 h,33.4%
same,MCV,3 h,63.4 fL
same,Mono,3 h,1.8%
same,Neu,3 h,16.4%
same,PT,3 h,12.8 s
same,Plat,3 h,116.8 x10_4/uL
same,RBC,3 h,607.8 x10_4/ul
same,Ret,3 h,7.5%
same,WBC,3 h,77.9 x10_2/uL
same,KIDNEY_L,3 h,0.9 g
same,KIDNEY_R,3 h,0.9 g
same,KIDNEY_TOTAL,3 h,1.9 g
same,LIVER,3 h,9.9 g
same,A/G,3 h,1.5
same,ALP,3 h,1055 IU/L
same,ALT,3 h,36.8 IU/L
same,AST,3 h,60.2 IU/L
same,BUN,3 h,12 mg/dL
same,CRE,3 h,0.4 mg/dL
same,Ca,3 h,10.6 mg/dL
same,Cl,3 h,101.6 meq/L
same,DBIL,3 h,0.074 mg/dL
same,GLC,3 h,196 mg/dL
same,IP,3 h,9.4 mg/dL
same,K,3 h,3.9 meq/L
same,LDH,3 h,182 IU/L
same,Na,3 h,140.2 meq/L
same,PL,3 h,140.6 mg/dL
same,RALB,3 h,3.2 g/dL
same,TBIL,3 h,0.1 mg/dL
same,TC,3 h,78 mg/dL
same,TG,3 h,73.8 mg/dL
same,TP,3 h,5.5 g/dL
same,gamma-GTP,3 h,1.4 IU/L
same,TERMINAL_BW,6 h,206.9 g
same,APTT,6 h,20.7 s
same,Bas,6 h,0%
same,Eos,6 h,1%
same,Fbg,6 h,224 mg/dL
same,Hb,6 h,13.2 g/dL
same,Ht,6 h,38.3%
same,Lym,6 h,75.8%
same,MCH,6 h,21.8 pg
same,MCHC,6 h,34.4%
same,MCV,6 h,63.6 fL
same,Mono,6 h,2.8%
same,Neu,6 h,19.2%
same,PT,6 h,12.9 s
same,Plat,6 h,114.7 x10_4/uL
same,RBC,6 h,602.8 x10_4/ul
same,Ret,6 h,7.7%
same,WBC,6 h,74.8 x10_2/uL
same,KIDNEY_L,6 h,1 g
same,KIDNEY_R,6 h,1 g
same,KIDNEY_TOTAL,6 h,2 g
same,LIVER,6 h,9.4 g
same,A/G,6 h,1.6
same,ALP,6 h,989.2 IU/L
same,ALT,6 h,35.8 IU/L
same,AST,6 h,65.8 IU/L
same,BUN,6 h,10.4 mg/dL
same,CRE,6 h,0.3 mg/dL
same,Ca,6 h,10.6 mg/dL
same,Cl,6 h,101.6 meq/L
same,DBIL,6 h,0.07 mg/dL
same,GLC,6 h,189.2 mg/dL
same,IP,6 h,9.4 mg/dL
same,K,6 h,4 meq/L
same,LDH,6 h,182.6 IU/L
same,Na,6 h,140.6 meq/L
same,PL,6 h,141.2 mg/dL
same,RALB,6 h,3.3 g/dL
same,TBIL,6 h,0.1 mg/dL
same,TC,6 h,73.2 mg/dL
same,TG,6 h,58 mg/dL
same,TP,6 h,5.4 g/dL
same,gamma-GTP,6 h,1.2 IU/L
same,TERMINAL_BW,9 h,205 g
same,APTT,9 h,18.9 s
same,Bas,9 h,0%
same,Eos,9 h,1%
same,Fbg,9 h,213.2 mg/dL
same,Hb,9 h,13.1 g/dL
same,Ht,9 h,38.3%
same,Lym,9 h,72.6%
same,MCH,9 h,21.5 pg
same,MCHC,9 h,34.1%
same,MCV,9 h,63 fL
same,Mono,9 h,3%
same,Neu,9 h,22.2%
same,PT,9 h,12.8 s
same,Plat,9 h,115.1 x10_4/uL
same,RBC,9 h,608.8 x10_4/ul
same,Ret,9 h,7%
same,WBC,9 h,85.1 x10_2/uL
same,KIDNEY_L,9 h,0.9 g
same,KIDNEY_R,9 h,0.9 g
same,KIDNEY_TOTAL,9 h,1.8 g
same,LIVER,9 h,8.7 g
same,A/G,9 h,1.6
same,ALP,9 h,765.6 IU/L
same,ALT,9 h,31.8 IU/L
same,AST,9 h,63.2 IU/L
same,BUN,9 h,11.4 mg/dL
same,CRE,9 h,0.4 mg/dL
same,Ca,9 h,10.5 mg/dL
same,Cl,9 h,103 meq/L
same,DBIL,9 h,0.078 mg/dL
same,GLC,9 h,207.2 mg/dL
same,IP,9 h,9.3 mg/dL
same,K,9 h,3.9 meq/L
same,LDH,9 h,194.2 IU/L
same,Na,9 h,141.2 meq/L
same,PL,9 h,142.2 mg/dL
same,RALB,9 h,3.4 g/dL
same,TBIL,9 h,0.1 mg/dL
same,TC,9 h,73.2 mg/dL
same,TG,9 h,76.4 mg/dL
same,TP,9 h,5.5 g/dL
same,gamma-GTP,9 h,2 IU/L
same,TERMINAL_BW,24 h,224.5 g
same,APTT,24 h,18.9 s
same,Bas,24 h,0%
same,Eos,24 h,1%
same,Fbg,24 h,220.8 mg/dL
same,Hb,24 h,13.3 g/dL
same,Ht,24 h,39%
same,Lym,24 h,73.8%
same,MCH,24 h,21.9 pg
same,MCHC,24 h,34%
same,MCV,24 h,64.3 fL
same,Mono,24 h,3.6%
same,Neu,24 h,20.4%
same,PT,24 h,12.1 s
same,Plat,24 h,117.1 x10_4/uL
same,RBC,24 h,607.2 x10_4/ul
same,Ret,24 h,6.9%
same,WBC,24 h,89.1 x10_2/uL
same,KIDNEY_L,24 h,1 g
same,KIDNEY_R,24 h,1 g
same,KIDNEY_TOTAL,24 h,2 g
same,LIVER,24 h,10.8 g
same,A/G,24 h,1.5
same,ALP,24 h,961.8 IU/L
same,ALT,24 h,45 IU/L
same,AST,24 h,75.8 IU/L
same,BUN,24 h,16.6 mg/dL
same,CRE,24 h,0.4 mg/dL
same,Ca,24 h,10.7 mg/dL
same,Cl,24 h,101.6 meq/L
same,DBIL,24 h,0.1 mg/dL
same,GLC,24 h,193.8 mg/dL
same,IP,24 h,8.1 mg/dL
same,K,24 h,4.1 meq/L
same,LDH,24 h,214.4 IU/L
same,Na,24 h,140 meq/L
same,PL,24 h,181.4 mg/dL
same,RALB,24 h,3.4 g/dL
same,TBIL,24 h,0.2 mg/dL
same,TC,24 h,89.4 mg/dL
same,TG,24 h,133 mg/dL
same,TP,24 h,5.6 g/dL
same,gamma-GTP,24 h,1.2 IU/L
